The source of these data is patent publication US20240252454A1, “COMPOSITION COMPRISING AN INHIBITOR OF MITOCHONDRIAL TRANSCRIPTION” (LEAD DISCOVERY CENTER GMBH, priority 2021, published 2024).

What all share (test): SRB assay, IMT combined with inhibitor
What all share (format): cell-based
Background: In SRB staining, fixed cells bind dye roughly in proportion to their protein.

The subject of one experiment is U2OS. The conditions noted are these: U2OS (bone); concentration series of the labelled inhibitor + fixed concentration of IMT (3S)-1-[(2R)-2-[4-(2-chloro-4-fluoro-phenyl)-2-oxo-chromen-7-yl]oxypropanoyl]piperidine-3-carboxylic acid (Table 3: 40 nM, 120 h); negative=synergistic, positive=antagonistic. The protocol: (§1) Solforhodamine B assay is carried out as described in Voigt W. (2005) Sulforhodamine B Assay and Chemosensitivity. (Methods in Molecular Medicine™, vol 110. Humana Press. https://doi.org/10.1385/1-59259-869-2:039).
(§2) The determination of changes in cellular biomass was based on the Solforhodamine B assay format, carried out as described in Voigt W. (2005) Sulforhodamine B Assay and Chemosensitivity. (Methods in Molecular Medicine™, vol 110. Humana Press. https://doi.org/10.1385/1-59259-869-2:039).
(§3) All in vitro cell culture experiments were carried out under near physiological glucose concentrations (5 mM) in at least two independent replicates.
(§4) First, 30 different cell lines from 14 different tissue types were tested in the SRB assay format. The cells were examined individually for changes in growth over a period of 120 hours with dilution series of both inhibitors. Untreated cells were used as a negative control group. Subsequently, a dilution series of the respective MAPK signalling pathway SOCs was treated in combination with a fixed concentration of 40 nM (3S)-1-[(2R)-2-[4-(2-chloro-4-fluoro-phenyl)-2-oxo-chromen-7-yl]oxypropanoyl]piperidine-3-carboxylic acid.

In a further experiment the test system is U87MG. The note with it: U87MG (brain); concentration series of the labelled inhibitor + fixed concentration of IMT (3S)-1-[(2R)-2-[4-(2-chloro-4-fluoro-phenyl)-2-oxo-chromen-7-yl]oxypropanoyl]piperidine-3-carboxylic acid (Table 3: 40 nM, 120 h); negative=synergistic, positive=antagonistic. As to the method:
as §1, §2, §3, §4

Another experiment relates to MV4-11. The conditions noted are these: MV4-11 (hematological); concentration series of the labelled inhibitor + fixed concentration of IMT (3S)-1-[(2R)-2-[4-(2-chloro-4-fluoro-phenyl)-2-oxo-chromen-7-yl]oxypropanoyl]piperidine-3-carboxylic acid (Table 3: 40 nM, 120 h); negative=synergistic, positive=antagonistic. The protocol:
as §1, §2, §3, §4

The next experiment concerns SKMEL5. The conditions noted are these: SKMEL5 (skin); concentration series of the labelled inhibitor + fixed concentration of IMT (3S)-1-[(2R)-2-[4-(2-chloro-4-fluoro-phenyl)-2-oxo-chromen-7-yl]oxypropanoyl]piperidine-3-carboxylic acid (Table 3: 40 nM, 120 h); negative=synergistic, positive=antagonistic. As to the method: as §1, §2, §3, §4
The test system of another experiment is HELA. The conditions noted are these: HELA (cervix); concentration series of the labelled inhibitor + fixed concentration of IMT (3S)-1-[(2R)-2-[4-(2-chloro-4-fluoro-phenyl)-2-oxo-chromen-7-yl]oxypropanoyl]piperidine-3-carboxylic acid (Table 3: 40 nM, 120 h); negative=synergistic, positive=antagonistic. As to the method:
as §1, §2, §3, §4

A further experiment concerns A375. The conditions noted are these: A375 (skin); concentration series of the labelled inhibitor + fixed concentration of IMT (3S)-1-[(2R)-2-[4-(2-chloro-4-fluoro-phenyl)-2-oxo-chromen-7-yl]oxypropanoyl]piperidine-3-carboxylic acid (Table 3: 40 nM, 120 h); negative=synergistic, positive=antagonistic. As to the method:
as §1, §2, §3, §4

In another experiment the test system is HCT116. The note with it: HCT116 (colon); concentration series of the labelled inhibitor + fixed concentration of IMT (3S)-1-[(2R)-2-[4-(2-chloro-4-fluoro-phenyl)-2-oxo-chromen-7-yl]oxypropanoyl]piperidine-3-carboxylic acid (Table 3: 40 nM, 120 h); negative=synergistic, positive=antagonistic. The protocol:
as §1, §2, §3, §4

The subject of the next experiment is CALU6. The conditions noted are these: CALU6 (lung); concentration series of the labelled inhibitor + fixed concentration of IMT (3S)-1-[(2R)-2-[4-(2-chloro-4-fluoro-phenyl)-2-oxo-chromen-7-yl]oxypropanoyl]piperidine-3-carboxylic acid (Table 3: 40 nM, 120 h); negative=synergistic, positive=antagonistic. The protocol:
as §1, §2, §3, §4

The test system of a further experiment is HEPG2. The conditions noted are these: HEPG2 (liver); concentration series of the labelled inhibitor + fixed concentration of IMT (3S)-1-[(2R)-2-[4-(2-chloro-4-fluoro-phenyl)-2-oxo-chromen-7-yl]oxypropanoyl]piperidine-3-carboxylic acid (Table 3: 40 nM, 120 h); negative=synergistic, positive=antagonistic. The protocol:
as §1, §2, §3, §4

The next experiment concerns JAR. The note with it: JAR (placenta); concentration series of the labelled inhibitor + fixed concentration of IMT (3S)-1-[(2R)-2-[4-(2-chloro-4-fluoro-phenyl)-2-oxo-chromen-7-yl]oxypropanoyl]piperidine-3-carboxylic acid (Table 3: 40 nM, 120 h); negative=synergistic, positive=antagonistic. As to the method:
as §1, §2, §3, §4

For the next experiment, the system named is HT1080. The note with it: HT1080 (connective tissue); concentration series of the labelled inhibitor + fixed concentration of IMT (3S)-1-[(2R)-2-[4-(2-chloro-4-fluoro-phenyl)-2-oxo-chromen-7-yl]oxypropanoyl]piperidine-3-carboxylic acid (Table 3: 40 nM, 120 h); negative=synergistic, positive=antagonistic. The protocol: as §1, §2, §3, §4
The subject of another experiment is DU145. The note with it: DU145 (prostate); concentration series of the labelled inhibitor + fixed concentration of IMT (3S)-1-[(2R)-2-[4-(2-chloro-4-fluoro-phenyl)-2-oxo-chromen-7-yl]oxypropanoyl]piperidine-3-carboxylic acid (Table 3: 40 nM, 120 h); negative=synergistic, positive=antagonistic. As to the method:
as §1, §2, §3, §4

A further experiment relates to MHHES1. The conditions noted are these: MHHES1 (bone); concentration series of the labelled inhibitor + fixed concentration of IMT (3S)-1-[(2R)-2-[4-(2-chloro-4-fluoro-phenyl)-2-oxo-chromen-7-yl]oxypropanoyl]piperidine-3-carboxylic acid (Table 3: 40 nM, 120 h); negative=synergistic, positive=antagonistic. The protocol: as §1, §2, §3, §4
For the next experiment, the system named is NCIH460. The conditions noted are these: NCIH460 (lung); concentration series of the labelled inhibitor + fixed concentration of IMT (3S)-1-[(2R)-2-[4-(2-chloro-4-fluoro-phenyl)-2-oxo-chromen-7-yl]oxypropanoyl]piperidine-3-carboxylic acid (Table 3: 40 nM, 120 h); negative=synergistic, positive=antagonistic. The protocol:
as §1, §2, §3, §4

In another experiment the test system is KASUMI-1. The note with it: KASUMI-1 (hematological); concentration series of the labelled inhibitor + fixed concentration of IMT (3S)-1-[(2R)-2-[4-(2-chloro-4-fluoro-phenyl)-2-oxo-chromen-7-yl]oxypropanoyl]piperidine-3-carboxylic acid (Table 3: 40 nM, 120 h); negative=synergistic, positive=antagonistic. The protocol: as §1, §2, §3, §4

In the case of `Cn1cnc2c(F)c(Nc3ccc(Br)cc3Cl)c(C(=O)NOCCO)cc21` [Selumetinib], the “difference between the calculated combinatorial index (BLISS) and the observed combinatorial effect” value with U2OS was −0.1010; in the experiment on U87MG it was 0.0486; with MV4-11 it was 0.0150; in the experiment on SKMEL5, −0.0968; in the experiment on HELA, 0.0054; in the experiment on A375, 0.0423. Moreover, the “difference between the calculated combinatorial index (BLISS) and the observed combinatorial effect” value in the experiment with HCT116 is −0.0774; in the experiment on CALU6 it was 0.0376; in the experiment with HEPG2, 0.0032; in the experiment with JAR, 0.0045; in the experiment on HT1080, −0.0139; with DU145, 0.0383. Further, the “difference between the calculated combinatorial index (BLISS) and the observed combinatorial effect” value in the experiment on MHHES1 was 0.0218; in the experiment on NCIH460 it was −0.0276; with KASUMI-1, −0.0114.

On to `CC(=O)Nc1cccc(-n2c(=O)n(C3CC3)c(=O)c3c(Nc4ccc(I)cc4F)n(C)c(=O)c(C)c32)c1` [Trametinib], for which the “difference between the calculated combinatorial index (BLISS) and the observed combinatorial effect” value in the experiment with U2OS is −0.0358; with U87MG it was 0.0578; with MV4-11, 0.0747; with SKMEL5, 0.0072; in the experiment on HELA, −0.0064; in the experiment with A375, 0.0510. Also, the “difference between the calculated combinatorial index (BLISS) and the observed combinatorial effect” value in the experiment on HCT116 is −0.0027; in the experiment with CALU6, −0.0308; with HEPG2 it was 0.0351; with JAR it was 0.0230; in the experiment with HT1080 it was 0.0288; with DU145, 0.0287. Moreover, the “difference between the calculated combinatorial index (BLISS) and the observed combinatorial effect” value is recorded as 0.0760 with MHHES1, 0.0180 with NCIH460 and −0.0377 in the experiment with KASUMI-1.

Take `CC(C)Nc1cc(-c2c[nH]c(C(=O)N[C@H](CO)c3cccc(Cl)c3)c2)c(Cl)cn1` [Ulixertinib]: the “difference between the calculated combinatorial index (BLISS) and the observed combinatorial effect” value is −0.0165 in the experiment on U2OS; 0.0859 with U87MG; 0.0079 in the experiment with MV4-11; −0.0542 in the experiment on SKMEL5; −0.0117 in the experiment on HELA; 0.0427 with A375. Besides, the “difference between the calculated combinatorial index (BLISS) and the observed combinatorial effect” value in the experiment on HCT116 was −0.0066; in the experiment on CALU6, 0.0100; in the experiment with HEPG2, 0.0953; in the experiment with JAR, 0.0116; in the experiment on HT1080, −0.0011; in the experiment on DU145 it was 0.0554. Besides, the “difference between the calculated combinatorial index (BLISS) and the observed combinatorial effect” value in the experiment on MHHES1 was 0.0992; in the experiment on NCIH460 it was 0.0088; in the experiment with KASUMI-1, 0.0068.
